The test system of assay [1] is B16 melanoma cells. As to the kind of experiment: In vivo growth of B16 melanoma in C57BL/6 mice treated with HDAC6 inhibitors. The following applies: wild type B16 melanoma cells in C57BL/6 mice, treated daily with 20 mg/kg; FIG. 7B. An excerpt:
Pan-HDAC inhibitors (pan-HDACi) slows the proliferation and improves the immunogenicity of melanoma cells (Woods, D. M., et al. Melanoma Res (2013)). However, the non-selective nature of pan-HDACi makes the assumption of the specific participation of HDACs on these processes impossible. […] The next step was identifying if HDAC6KD would affect the growth of melanoma cells in vivo. […] A similar result was obtained in another experiment injecting wild type B16 melanoma cells into C57BL/6 mice treated daily with 20 mg/kg of the HDAC6inh Nexturastat A or Nexturastat B (FIG. 7B). The amount of PDL1 and activation of STAT3 was decreased in tumors isolated after the in vivo treatment with HDAC6inh (FIG. 7C).
These in vitro results were further supported by in vivo tumor growth studies. […] A similar outcome was identified after inoculation of HDAC6KD B16 melanoma cells in C57BL/6 mice (FIG. 14A). […] This delay in tumor growth could be a reflection of their diminished proliferation and an increase in their immunogenicity leading to improved immune recognition and clearance. These studies provide critical insights into the molecular pathways that are involved in the regulatory role of HDAC6 in cell proliferation, survival, and cytokine signaling of human melanoma cells.

In assay [2] the test system is B16 WT melanoma. As to the kind of experiment: In vivo growth of B16 WT melanoma in SCID mice treated with HDAC6 inhibitor. To be noted: FIG. 14A. The method, then:
FIGS. 14A and 14B show differences in growth of melanoma cells after HDAC6 inhibition in altered immune systems. […] Mice were treated with antibodies to deplete CD4, CD8, and NK cells.

The test system of assay [3] is HDAC6. As to the kind of experiment: Recruitment of HDAC6 to the IL-10 promoter. Format: cell-based. To be noted: cells treated with STAT3 inhibitor. From the text: HDAC6 is recruited to regulatory sequences in gene promoters such as MYC (Toropainen, S., et al. J Mol Biol. 400:284-294 (2010)), glucocorticoid receptor (Govindan, M. V. J Biol Chem. 285:4489-4510 (2010)) and estrogen receptor a-inducible genes (Palijan, A., et al. J Biol Chem. 284:30264-30274 (2009)). However, there is no evidence showing that HDAC6 is directly affecting the acetylation status of chromatin. […] Thus, the transcriptional regulatory effects observed for HDAC6 could be mediated by other regulatory factors recruited along with this deacetylase to specific DNA sequences. […] HDAC6 and STAT3 are recruited to the same region of the IL-10 promoter, and the recruitment of HDAC6 is impaired when cells are treated with the STAT3 inhibitor CPA-7.

Assay [4] concerns PDL1. As to the kind of experiment: PDL1 expression by flow cytometry in melanoma cell lines treated with HDACi. Format: cell-based. To be noted: two murine and five human melanoma cell lines, up to 72 hours, relative to DMSO; FIG. 22. The method, then: B16, WM983A, Sk-Mel21, WM1366, WM35, and WM793 melanoma cells lines were treated with DMSO (“D”), 10 nM LBH589 (“LB”), 500 nM MGCD0103 (“MG”), or 500 nM MS275 (“MS”) for 72 hours. PDL1 expression was assessed by flow cytometry. Histograms shown are for PDL1 expression or autofluorescence (solid grey) of 10,000 cells or more.
Melanoma cell lines were treated with DMSO, 10 nM LBH589 (squares), 1.5 μM ACY1215 (triangles), 500 nM MS275 (diamonds), 500 nM CLB66 (circles), or 500 nM MGCD0103 (X). PDL1 expression at indicated time points was assessed by flow cytometry. Voltages between time point measurements was standardized using rainbow beads with standard emissions. Mean fluorescence intensity minus autofluorescencee is graphed for each time point. DMSO treatment was plotted as zero hours.
In this Example, HDACi targeting class I HDACs, but not class II, is shown to augment expression of PDL1 in melanoma cells. Two murine and five human melanoma cell lines were treated for up to 72 hours with DMSO, LBH589 (pan-HDACi), MS275 (class I inhibitor), MGCD0103 (class I inhibitor), an HDAC6 specific inhibitor, or a class IIa inhibitor (FIG. 21). […] Increased expression was noted as early as 24 hours after treatment and peaked at 72 to 96 hours post-treatment (FIG. 23).
Background: A flow cytometer gives signals particle by particle.

Assay [5] has as its system Multiple Myeloma. To be noted: preliminary studies (Santo et al. 2012); cited from earlier work.
Assay [6] relates to PDL1. The assay can be described thus: PDL1 expression in B16 tumors of LBH589-treated mice (flow cytometry). Format: in vivo, C57BL/6 mice. The following applies: 15 mg/kg IP Mon, Wed, Fri, one week, FIG. 24. On the procedure: C57BL/6 mice were injected subcutaneously with 100,000 B16 cells. When tumors became palpable, treatment with 15 mg/kg LBH589 via IP injection began on a Mon, Wed, Fri schedule. After one week of treatment, mice were sacrificed, tumors harvest and analyzed by flow cytometry for PDL1 expression.

As for `CCCCN(Cc1ccc(C(=O)NO)cc1)C(=O)Nc1ccc2cn[nH]c2c1` [Nexturastat B], the tumor growth entry in assay [1] is “delayed tumor growth”. For the same compound, the “in vivo growth of B16 WT melanoma” value in assay [2] is reported as “not significantly different”. Turning to CPA-7, the “recruitment of HDAC6 to the IL-10 promoter” value in assay [3] is reported as “impaired”. As to `Nc1ccccc1NC(=O)c1ccc(CNc2nccc(-c3cccnc3)n2)cc1` [MGCD0103], the PDL1 expression result in assay [4] was “dose dependent, increases”.

On to `O=C(CCCCCCNC(=O)c1cnc(N(c2ccccc2)c2ccccc2)nc1)NO` [ACY1215], for which the anti-tumor activity entry in assay [5] is “important anti-tumor activity”.

Regarding `CCCCN(Cc1ccc(C(=O)NO)cc1)C(=O)Nc1ccccc1` [Nexturastat A], the tumor growth result in assay [1] is listed as “delayed tumor growth”. Turning to `Nc1ccccc1NC(=O)c1ccc(CNC(=O)OCc2cccnc2)cc1` [MS275], the PDL1 expression result in assay [4] was “dose dependent, increases”. For `Cc1[nH]c2ccccc2c1CCNCc1ccc(/C=C/C(=O)NO)cc1` [LBH589], in assay [4], the PDL1 expression entry was “dose dependent, increases”. Further, the “PDL1 expression in vivo” value in assay [6] is reported as “upregulates”.

(Values after patent US10576066B2, “Histone deacetylase as a modulator of PDLI expression and activity” (H. LEE MOFFITT CANCER CENTER AND RESEARCH INSTITUTE, INC., priority 2014, dated 2020).)
